According to patent US8772504B2, “Substituted benzoxazole, benzimidazole, oxazolopyridine and imidazopyridine derivatives as gamma secretase modulators” (Janssen Pharmaceuticals, Inc., priority 2009, dated 2014):

Legend:
[1] = system: Aβ42; test: Screening for γ-secretase-modulating activity, Method 1: Aβ42 sandwich ELISA on SKNBE2 cell media; type: cell-based; conditions: SKNBE2 cells carrying APP 695 wild type
Protocol: (§1) Screening was carried out using SKNBE2 cells carrying the APP 695—wild type, grown in Dulbecco's Modified Eagle's Medium/Nutrient mixture F-12 (DMEM/NUT-mix F-12) (HAM) provided by Gibco (cat no. 31330-38) containing 5% Serum/Fe supplemented with 1% non-essential amino acids. Cells were grown to near confluency.
(§2) The screening was performed using the assay as described in Citron et al (1997) Nature Medicine 3: 67. Briefly, cells were plated in a 96-well plate at about 10^5 cells/ml one day prior to addition of compounds. Compounds were added to the cells in Ultraculture (Lonza, BE12-725F) supplemented with 1% glutamine (Invitrogen, 25030-024) for 18 hours. The media were assayed by two sandwich ELISAs, for Aβ42 and Aβtotal. Toxicity of the compounds was assayed by WST-1 cell proliferation reagent (Roche, 1 644 807) according to the manufacturer's protocol.
To quantify the amount of Aβ42 in the cell supernatant, commercially available Enzyme-Linked-Immunosorbent-Assay (ELISA) kits were used (Innotest® β-Amyloid(1-42), Innogenetics N.V., Ghent, Belgium). The Aβ42 ELISA was performed essentially according to the manufacturer's protocol. Briefly, the standards (dilutions of synthetic Aβ1-42) were prepared in polypropylene Eppendorf with final concentrations of 8000 down to 3.9 pg/ml (1/2 dilution step). Samples, standards and blanks (100 μl) were added to the anti-Aβ42-coated plate supplied with the kit (the capture antibody selectively recognizes the C-terminal end of the antigen). The plate was allowed to incubate 3 h at 25° C. in order to allow formation of the antibody-amyloid complex. Following this incubation and subsequent wash steps a selective anti-Aβ-antibody conjugate (biotinylated 3D6) was added and incubated for a minimum of 1 hour in order to allow formation of the antibody-Amyloid-antibody-complex. After incubation and appropriate wash steps, a Streptavidine-Peroxidase-Conjugate was added, followed 30 minutes later by an addition of 3,3′,5,5′-tetramethylbenzidine (TMB)/peroxide mixture, resulting in the conversion of the substrate into a coloured product. This reaction was stopped by the addition of sulfuric acid (0.9 N) and the colour intensity was measured by means of photometry with an ELISA-reader with a 450 nm filter.
(§3) To obtain the values reported in Table 3a, the sigmoidal dose response curves were analysed by computerised curve-fitting, with percent of inhibition plotted against compound concentration. A 4-parameter equation (model 205) in XLfit was used to determine the IC50. The top and the bottom of the curve were fixed to 100 and 0, respectively, and the hill slope was fixed to 1. The IC50 represents the concentration of a compound that is required for inhibiting a biological effect by 50% (Here, it is the concentration where Aβ peptide level is reduced by 50%).
(§4) To obtain the values reported in Table 3b, the data were calculated as percentage of the maximum amount of amyloid Beta 42 measured in the absence of the test compound. The sigmoidal dose response curves were analyzed using non-linear regression analysis with percentage of the control plotted against the log concentration of the compound. A 4-parameter equation was used to determine the IC50. The values reported in Table 3b are averaged IC50 values.

[2] = system: Aβtotal; test: Screening for γ-secretase-modulating activity, Method 1: Aβtotal sandwich ELISA on SKNBE2 cell media; type: cell-based; conditions: SKNBE2 cells carrying APP 695 wild type
Protocol: as §1, §2
To quantify the amount of Aβtotal in the cell supernatant, samples and standards were added to a 6E10-coated plate. The plate was allowed to incubate overnight at 4° C. in order to allow formation of the antibody-amyloid complex. Following this incubation and subsequent wash steps a selective anti-Aβ-antibody conjugate (biotinylated 4G8) was added and incubated for a minimum of 1 hour in order to allow formation of the antibody-Amyloid-antibody-complex. After incubation and appropriate wash steps, a Streptavidine-Peroxidase-Conjugate was added, followed 30 minutes later by an addition of Quanta Blu fluorogenic peroxidase substrate according to the manufacturer's instructions (Pierce Corp., Rockford, Ill.).
as §3, §4

[3] = Homo sapiens, Table 3a, 18 hours, XLfit, top/bottom fixed to 100 and 0, hill slope 1
[4] = Homo sapiens, Table 3b, non-linear regression of % of control, averaged IC50 values
[5] = Table 3a, 18 hours, XLfit, top/bottom fixed to 100 and 0, hill slope 1
[6] = Table 3b, non-linear regression of % of control, averaged IC50 values

Structure (SMILES)	IC50 [1, 3]	IC50 [1, 4]	IC50 [2, 3]	IC50 [2, 4]	IC50 [1, 5]	IC50 [1, 6]	IC50 [2, 5]	IC50 [2, 6]
COc1cc(Nc2cccc3c2nc(CC2CCN(C(C)=O)CC2)n3C)ccc1-n1cnc(C)c1 [Compound 10]	751 nM	575 nM	> 30000 nM	29500 nM	–	–	–	–
COc1cc(Nc2cccc3c2nc(CC2CCN(C)CC2)n3C)ccc1-n1cnc(C)c1 [Compound 11]	1590 nM	1260 nM	12000 nM	16600 nM	–	–	–	–
Cc1ncnn1-c1ccc(Nc2nccc3c2nc(-c2ccc(F)cc2)n3C(C)C)cc1F [Compound 13]	603 nM	603 nM	> 10000 nM	> 10000 nM	–	–	–	–
Cc1ncn(-c2ccc(Nc3cc(C(F)(F)F)cc4c3nc(-c3ccc(F)cc3)n4C)cn2)n1 [Compound 14]	132 nM	132 nM	> 10000 nM	> 10000 nM	–	–	–	–
COc1cc(Nc2cccc3oc(-c4ccccc4Cl)nc23)ccc1-n1cnc(C)c1 [Compound 16]	267 nM	257 nM	> 10000 nM	> 10000 nM	–	–	–	–
COc1cc(Nc2cccc3oc(C4CCCCC4)nc23)ccc1-n1cnc(C)c1 [Compound 17]	178 nM	174 nM	> 3000 nM	> 3000 nM	–	–	–	–
COc1cc(Nc2cccc3c2nc(C)n3C)ccc1-n1cnc(C)c1 [Compound 19]	–	–	–	–	1660 nM	1660 nM	> 10000 nM	> 10000 nM
COc1cc(Nc2cccc3c2nc(C)n3C(C)C)ccc1-n1cnc(C)n1 [Compound 21]	–	–	–	–	905 nM	891 nM	> 33000 nM	45700 nM
CCCCc1nc2c(Nc3ccc(-n4cnc(C)n4)c(F)c3)cccc2n1C [Compound 24]	–	–	–	–	505 nM	380 nM	18000 nM	17800 nM
COc1cc(Nc2cccc3c2nc(CC(C)C)n3C)ccc1-n1cnc(C)c1 [Compound 25]	–	–	–	–	19 nM	19 nM	> 3000 nM	> 3000 nM
Cc1ncn(-c2ccc(Nc3cccc4c3nc(CC(C)C)n4CC(C)C)cc2)n1 [Compound 26]	–	–	–	–	517 nM	708 nM	> 10000 nM	> 10000 nM
COCCn1c(CC(C)C)nc2c(Nc3ccc(-n4cnc(C)n4)cc3)cccc21 [Compound 27]	–	–	–	–	1250 nM	1120 nM	> 10000 nM	17400 nM
COc1cc(Nc2cccc3oc(CC(C)C)nc23)ccc1-n1cnc(C)n1 [Compound 28]	–	–	–	–	1350 nM	1350 nM	> 3000 nM	> 3000 nM
COc1cc(Nc2cccc3c2nc(C(C)(C)C)n3C)ccc1-n1cnc(C)c1 [Compound 29]	–	–	–	–	1090 nM	437 nM	> 10000 nM	> 10000 nM
COc1cc(Nc2cccc3oc(C(C)(C)C)nc23)ccc1-n1cnc(C)c1 [Compound 30]	–	–	–	–	790 nM	794 nM	> 3000 nM	> 3000 nM
COc1cc(Nc2cccc3c2nc(OC(C)C)n3C)ccc1-n1cnc(C)c1 [Compound 31]	–	–	–	–	550 nM	501 nM	29700 nM	> 30000 nM
COCCCc1nc2c(Nc3ccc(-n4cnc(C)c4)c(OC)c3)cccc2n1C [Compound 32]	–	–	–	–	216 nM	209 nM	> 10000 nM	> 10000 nM
COc1cc(Nc2cccc3c2nc(CCC(F)(F)F)n3C)ccc1-n1cnc(C)c1 [Compound 34]	–	–	–	–	51 nM	43 nM	> 1000 nM	> 1000 nM
COc1cc(Nc2cccc3oc(C4CCCC4)nc23)ccc1-n1cnc(C)c1 [Compound 37]	–	–	–	–	266 nM	275 nM	> 10000 nM	> 10000 nM

Structure (SMILES)	IC50 [1, 3]	IC50 [1, 4]	IC50 [2, 3]	IC50 [2, 4]	IC50 [1, 5]	IC50 [1, 6]	IC50 [2, 5]	IC50 [2, 6]
COc1cc(Nc2cccc3c2nc(N2CCCCC2)n3C)ccc1-n1cnc(C)c1 [Compound 39]	–	–	–	–	69 nM	87 nM	> 3000 nM	> 5000 nM
COc1cc(Nc2cccc3oc(C4CCN(C(=O)OC(C)(C)C)CC4)nc23)ccc1-n1cnc(C)c1 [Compound 42]	–	–	–	–	1100 nM	1100 nM	> 3000 nM	> 3000 nM
COc1cc(Nc2cccc3c2nc(CC2CCOCC2)n3C)ccc1-n1cnc(C)c1 [Compound 43]	–	–	–	–	123 nM	120 nM	> 1000 nM	> 5000 nM
COc1cc(Nc2cccc3c2nc(-c2ccccc2C)n3Cc2ccccc2)ccc1-n1cnc(C)c1 [Compound 46]	10 nM	10 nM	> 1000 nM	> 3000 nM	–	–	–	–
COc1ccc(-c2nc3c(Nc4ccc(-n5cnc(C)c5)c(OC)c4)cccc3n2C)cc1 [Compound 47]	–	–	–	–	16 nM	13 nM	> 1000 nM	> 3000 nM
COc1ccccc1-c1nc2c(Nc3ccc(-n4cnc(C)c4)c(OC)c3)cccc2o1 [Compound 48]	–	–	–	–	427 nM	398 nM	> 10000 nM	> 10000 nM
COc1cccc(-c2nc3c(Nc4ccc(-n5cnc(C)n5)cc4)cccc3n2C)c1 [Compound 50]	–	–	–	–	101 nM	81 nM	> 10000 nM	> 10000 nM
COc1cccc(-c2nc3c(Nc4ccc(-n5cnc(C)n5)c(OC)c4)cccc3n2C)c1 [Compound 52]	–	–	–	–	20 nM	19 nM	> 3000 nM	> 3000 nM
COc1cccc(-c2nc3c(Nc4ccc(-n5cnc(C)n5)c(OC)c4)cccc3n2C(C)C)c1 [Compound 53]	–	–	–	–	22 nM	19 nM	> 1000 nM	> 3000 nM
CCOc1cc(C)c(-c2nc3c(Nc4ccc(-n5cnc(C)n5)c(OC)c4)cccc3n2C)cc1C(C)C [Compound 58]	–	–	–	–	68 nM	65 nM	> 3000 nM	> 3000 nM
CCOc1cc(C)c(Nc2nc3c(Nc4ccc(-n5cnc(C)c5)c(OC)c4)cccc3n2C)cc1C(C)C [Compound 60]	–	–	–	–	14 nM	14 nM	> 1000 nM	> 3000 nM
COc1cc(Nc2cccc3[nH]c(-c4ccc(F)cc4)nc23)ccc1-n1cnc(C)c1 [Compound 62]	–	–	–	–	114 nM	195 nM	> 1000 nM	> 3000 nM
COc1cc(Nc2cccc3c2nc(-c2ccc(F)cc2)n3C)ccc1-n1ccnc1 [Compound 63]	–	–	–	–	23 nM	22 nM	> 1000 nM	> 3000 nM
COc1cc(Nc2cccc3c2nc(-c2ccc(F)cc2)n3C)ccc1-n1cncn1 [Compound 64]	–	–	–	–	48 nM	49 nM	> 3000 nM	> 3000 nM
Cn1c(-c2ccc(F)cc2)nc2c(Nc3ccc(-n4cncn4)c(F)c3)cccc21 [Compound 65]	–	–	–	–	89 nM	81 nM	> 3000 nM	> 3000 nM
COc1cc(Nc2cccc3c2nc(-c2ccc(F)cc2)n3C)ccc1-n1cnc(C#N)c1 [Compound 72]	–	–	–	–	720 nM	724 nM	> 3000 nM	> 3000 nM
Cc1ncn(-c2ccc(Nc3cccc4c3nc(-c3ccc(F)cc3)n4C(C)(C)C)cc2)n1 [Compound 77]	–	–	–	–	190 nM	191 nM	> 3000 nM	> 3000 nM
COc1cc(Nc2cccc3c2nc(-c2ccc(F)cc2)n3Cc2ccccc2)ccc1-n1cnc(C)c1 [Compound 79]	–	–	–	–	24 nM	23 nM	> 10000 nM	> 10000 nM
